# According to patent publication US4328334A, “11-Aza-10-deoxo-10-dihydroerythromycin A and derivatives thereof as well as a process for their preparation” (PLIVA Pharmaceutical and Chemical Works, priority 1979, dated 1982):
# Where two headings read alike, the source gives them in different places.
# Assays:
# [1] = system: Staphylococcus aureus ATCC 6538-P; experiment: in vitro minimum inhibitory concentration, Staphylococcus aureus ATCC 6538-P; assay type: cell-based
# [2] = system: Brucella bronchiseptica ATCC 4617; experiment: microbe, parasite or virus in culture; assay type: cell-based; conditions: Bordetella bronchiseptica, ATCC4617, read-out: minimum inhibitory concentrations (MIC)
# [3] = system: Sarcina lutea ATCC 9341; experiment: in vitro minimum inhibitory concentration, Sarcina lutea ATCC 9341; assay type: cell-based; conditions: Micrococcus luteus, ATCC9341, read-out: minimum inhibitory concentrations (MIC)
# [4] = system: Salmonella panama; experiment: in vitro minimum inhibitory concentration, Salmonella panama; assay type: cell-based; conditions: Salmonella enterica, read-out: minimum inhibitory concentrations (MIC)
# [5] = system: Staphylococcus aureus ATCC 6538-P; experiment: stability in acid medium: MIC after exposure to 1 N HCl; assay type: cell-based; conditions: ATCC6538, pH 1.2, Staphylococcus aureus ATCC 6538-P
# [6] = system: Micrococcus flavus ATCC 10240; experiment: in vitro minimum inhibitory concentration, Micrococcus flavus ATCC 10240; assay type: cell-based
# [7] = system: Bacillus subtilis ATCC 6633; experiment: in vitro minimum inhibitory concentration, Bacillus subtilis ATCC 6633; assay type: cell-based
# [8] = system: Escherichia coli ATCC 10536; experiment: in vitro minimum inhibitory concentration, Escherichia coli ATCC 10536; assay type: cell-based; conditions: ATCC10536, read-out: minimum inhibitory concentrations (MIC)
# [9] = system: Pseudomonas aeruginosa NCTC 10490; experiment: in vitro minimum inhibitory concentration, Pseudomonas aeruginosa NCTC 10490; assay type: cell-based; conditions: Pseudomonas aeruginosa, NCTC10490, read-out: minimum inhibitory concentrations (MIC)
# [10] = system: Corynebacterium xerosis NCTC 9755; experiment: in vitro minimum inhibitory concentration, Corynebacterium xerosis NCTC 9755; assay type: cell-based; conditions: Corynebacterium xerosis, NCTC9755, read-out: minimum inhibitory concentrations (MIC)
# [11] = system: Staphylococcus epidermidis ATCC 12228; experiment: in vitro minimum inhibitory concentration, Staphylococcus epidermidis ATCC 12228; assay type: cell-based
# [12] = system: Shigella flexneri II-1819/C; experiment: in vitro minimum inhibitory concentration, Shigella flexneri II-1819/C; assay type: cell-based; conditions: II1819/C, read-out: minimum inhibitory concentrations (MIC)
# Description: In order to examine the antibacterial action, some new compounds were tested in vitro on a series of gram-positive and gram-negative micro-organisms. The results are shown in Table 1 as minimum inhibitory concentrations (MIC) in mcg/ml in comparision with erythromycin A erythromycin A oxime.
# [13] = system: Streptococcus faecalis ATCC 8043; experiment: in vitro minimum inhibitory concentration, Streptococcus faecalis ATCC 8043; assay type: cell-based; conditions: Enterococcus faecalis
# [14] = system: Bacillus cereus var. mycoides ATCC 11778; experiment: microbe, parasite or virus in culture; assay type: cell-based; conditions: ATCC11778, read-out: minimum inhibitory concentrations (MIC)
# [15] = system: Klebsiella pneumoniae ATCC 10031; experiment: in vitro minimum inhibitory concentration, Klebsiella pneumoniae ATCC 10031; assay type: cell-based; conditions: Klebsiella pneumoniae, ATCC10031, read-out: minimum inhibitory concentrations (MIC)
# [16] = pKb in dimethyl formamide-water; assay type: physicochemical; conditions: dmf (66% v/v)-water; dimethyl formamide (66% v/v)-water
# [17] = Micrococcus flavus, ATCC10240, read-out: minimum inhibitory concentrations (MIC)
# [18] = ATCC8043, read-out: minimum inhibitory concentrations (MIC)
# [19] = ATCC6538, in vitro, Staphylococcus aureus ATCC 6538-P, read-out: minimum inhibitory concentrations (MIC)
# [20] = ATCC6633, in vitro, Bacillus subtilis ATCC 6633, read-out: minimum inhibitory concentrations (MIC)
# [21] = ATCC12228, in vitro, Staphylococcus epidermidis ATCC 12228, read-out: minimum inhibitory concentrations (MIC)
structure (smiles),measurement,setting,value
"CC[C@H]1OC(=O)[C@H](C)[C@@H](O[C@H]2C[C@@](C)(OC)[C@@H](O)[C@H](C)O2)[C@H](C)[C@@H](O[C@@H]2O[C@H](C)C[C@H](N(C)C)[C@H]2O)[C@](C)(O)C[C@@H](C)C(=O)[C@H](C)[C@@H](O)[C@]1(C)O [E, erythromycin A]",MIC,"[1]; Staphylococcus aureus, ATCC6538, read-out: minimum inhibitory concentrations (MIC)",0.5 µg/mL
same,MIC,[2],1 µg/mL
same,MIC,[3],0.05 µg/mL
same,MIC,[4],50 µg/mL
same,MIC,[5]; exposure time 0 hours,0.5 µg/mL
same,MIC,"[5]; exposure time 1/2 hour, 1 N HCl",7.5 µg/mL
same,MIC,"[5]; exposure time 1 hour, 1 N HCl",10 µg/mL
same,MIC,"[5]; exposure time 2 hours, 1 N HCl",10 µg/mL
same,MIC,"[5]; exposure time 3 hours, 1 N HCl",10 µg/mL
same,MIC,"[5]; exposure time 6 hours, 1 N HCl",20 µg/mL
same,MIC,[6]; [17],0.05 µg/mL
same,MIC,"[7]; Bacillus subtilis, ATCC6633, read-out: minimum inhibitory concentrations (MIC)",0.05 µg/mL
same,MIC,[8],25 µg/mL
same,MIC,[9],50 µg/mL
same,MIC,[10],0.1 µg/mL
same,MIC,"[11]; Staphylococcus epidermidis, ATCC12228, read-out: minimum inhibitory concentrations (MIC)",0.1 µg/mL
same,MIC,[12],25 µg/mL
same,MIC,[13]; [18],0.05 µg/mL
same,MIC,[14],0.1 µg/mL
same,MIC,[15],5 µg/mL
"CCC(=O)O[C@H]1[C@H](O[C@@H]2[C@@H](C)[C@H](O[C@H]3C[C@@](C)(OC)[C@@H](O)[C@H](C)O3)[C@@H](C)C(=O)O[C@H](CC)[C@@](C)(O)[C@H](O)[C@@H](C)N(C(=O)CC)C[C@H](C)C[C@@]2(C)O)O[C@H](C)C[C@@H]1N(C)C [Example 6, 2',N-dipropionyl-11-aza-10-deoxo-10-dihydroerythromycin A]",pKa,[16],6.7
"CC[C@H]1OC(=O)[C@H](C)[C@@H](O[C@H]2C[C@@](C)(OC)[C@@H](OC(C)=O)[C@H](C)O2)[C@H](C)[C@@H](O[C@@H]2O[C@H](C)C[C@H](N(C)C)[C@H]2OC(C)=O)[C@](C)(O)C[C@@H](C)CN(C(C)=O)[C@H](C)[C@@H](OC(C)=O)[C@]1(C)O [Compound IV, 2',4"",13,N-tetraacetyl-11-aza-10-deoxo-10-dihydroerythromycin A]",MIC,[1]; [19],200 µg/mL
same,MIC,[3],10 µg/mL
same,MIC,[6]; [17],175 µg/mL
same,MIC,[7]; [20],200 µg/mL
same,MIC,[11]; [21],200 µg/mL
same,MIC,[13]; [18],175 µg/mL
same,MIC,[14],175 µg/mL
"CC[C@H]1OC(=O)[C@H](C)[C@@H](O[C@H]2C[C@@](C)(OC)[C@@H](O)[C@H](C)O2)[C@H](C)[C@@H](O[C@@H]2O[C@H](C)C[C@H](N(C)C)[C@H]2OC(C)=O)[C@](C)(O)C[C@@H](C)CN(C(C)=O)[C@H](C)[C@@H](O)[C@]1(C)O [Example 5, 2',N-diacetyl-11-aza-10-deoxo-10-dihydroerythromycin A]",pKa,[16],6.7
"CC[C@H]1OC(=O)[C@H](C)[C@@H](O[C@H]2C[C@@](C)(OC)[C@@H](OC(C)=O)[C@H](C)O2)[C@H](C)[C@@H](O[C@@H]2O[C@H](C)C[C@H](N(C)C)[C@H]2OC(C)=O)[C@](C)(O)C[C@@H](C)CN(C(C)=O)[C@H](C)[C@@H](O)[C@]1(C)O [Compound III, 2',4""-N-triacetyl-11-aza-10-deoxo-10-dihydroerythromycin A]",MIC,[1]; [19],150 µg/mL
same,MIC,[3],10 µg/mL
same,MIC,"[6]; ATCC10240, in vitro, Micrococcus flavus ATCC 10240, read-out: minimum inhibitory concentrations (MIC)",50 µg/mL
same,MIC,[7]; [20],175 µg/mL
same,MIC,[11]; [21],200 µg/mL
same,MIC,"[13]; ATCC8043, in vitro, Streptococcus faecalis ATCC 8043, read-out: minimum inhibitory concentrations (MIC)",125 µg/mL
same,MIC,[14],200 µg/mL
